In ChEMBL document CHEMBL1201862, “PubChem BioAssay data set” (2004):
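A five-concentration, 48-hour dose response in 96-well plates underlies each endpoint, interpolated linearly between surrounding concentrations. GI50 = concentration required for 50% inhibition of growth.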 Calls of active or inactive are those of the source. Rule as the data show it: active = GI50 up to about 1.1 µM and inactive = higher.

Experiments:
Assay in all cases: NCI tumour cell line growth inhibition, 48 h
[1] = tested on: ACHN
[2] = tested on: BT-549
[3] = tested on: CAKI-1
[4] = tested on: HCT-116
[5] = tested on: HL-60
[6] = tested on: HOP-62
[7] = tested on: HT-29
[8] = tested on: Hs-578T
[9] = tested on: LOX IMVI
[10] = tested on: MDA-MB-231
[11] = tested on: NCI-H23
[12] = tested on: OVCAR-8
[13] = tested on: RPMI-8226
[14] = tested on: SF-539
[15] = tested on: SK-MEL-5
[16] = tested on: SK-OV-3
[17] = tested on: SW-620
[18] = tested on: UACC-257
[19] = tested on: SN12C

Measured: GI50

CC(=O)Nc1ccc(-c2nc3ccccc3s2)cc1C
inactive: [1] 44.4 µM | [2] 27.5 µM | [3] 18.2 µM | [4] 78.7 µM | [5] 29.9 µM | [6] 40.6 µM | [7] > 100 µM | [8] 45.4 µM | [9] 36.5 µM | [10] 20 µM | [11] 75.5 µM | [12] 53.1 µM | [13] 55.2 µM | [14] 50.8 µM | [15] 58.9 µM | [16] 32.6 µM | [17] > 100 µM | [18] 69.7 µM

O=c1[nH]ncc2[nH]c3c(c12)CCc1ccccc1-3
inactive: [1] 32.1 µM | [2] 35.5 µM | [3] 21.5 µM | [4] 24.7 µM | [5] 24.7 µM | [6] 45.9 µM | [7] 29.9 µM | [8] 10.4 µM | [9] 22.5 µM | [10] 37.9 µM | [11] 39.4 µM | [12] 33.6 µM | [13] 30.1 µM | [14] 18.5 µM | [15] 11 µM | [16] 24.6 µM | [19] 36.5 µM | [17] 34.4 µM | [18] 45.6 µM

COc1ccc(SCc2cc(OC)ccc2OC)cc1
inactive: [1] 97.3 µM | [2] 16.1 µM | [3] 31.9 µM | [4] 33.8 µM | [5] 6.01 µM | [6] 59.8 µM | [7] 13.7 µM | [8] 29.5 µM | [9] 34.8 µM | [10] 82.2 µM | [11] 37.9 µM | [12] 96.4 µM | [13] 34 µM | [14] 39.2 µM | [15] 16.1 µM | [16] 12 µM | [19] 55.3 µM | [17] 10.6 µM | [18] 74 µM

CC(=O)OC[C@@]1(C)[C@@H]2[C@@H]3[C@@]4(CO[C@]3(C)C(=O)[C@@]3(O)C[C@H](C)[C@H](OC(C)=O)[C@@H]3[C@H]4OC(C)=O)[C@H](OC(=O)c3ccccc3)C[C@@H]21
inactive: [1] > 100 µM | [2] > 100 µM | [3] > 100 µM | [4] > 100 µM | [5] > 100 µM | [6] > 100 µM | [7] > 100 µM | [8] > 100 µM | [9] > 100 µM | [10] > 100 µM | [11] > 100 µM | [12] > 100 µM | [13] > 100 µM | [14] > 100 µM | [15] > 100 µM | [16] > 100 µM | [19] > 100 µM | [17] > 100 µM | [18] > 100 µM

CC1=C(C(=O)OCCc2ccc([N+](=O)[O-])cc2)C(c2ccccc2C(F)(F)F)C(C(=O)OC(C)C)=C(C)N1 (configuration not stated)
inactive: [1] 3.06 µM | [2] 3.21 µM | [3] 2.9 µM | [4] 2.92 µM | [5] 1.79 µM | [6] 3.51 µM | [7] 10.1 µM | [8] 2.12 µM | [9] 2.96 µM | [10] 3.79 µM | [11] 3.7 µM | [12] 4.04 µM | [13] 3.1 µM | [14] 3.82 µM | [15] 1.64 µM | [16] 3.97 µM | [19] 3.12 µM | [17] 3.68 µM | [18] 3.86 µM

CN1C(=O)C(c2c[nH]c3ccccc23)N(C)C(=O)C1c1c[nH]c2ccccc12 (configuration not stated)
inactive: [1] 72.8 µM | [2] > 100 µM | [3] > 100 µM | [4] > 100 µM | [5] > 100 µM | [6] 63.4 µM | [7] > 100 µM | [8] 62.1 µM | [9] > 100 µM | [10] 34.2 µM | [11] > 100 µM | [12] > 100 µM | [14] 86.5 µM | [15] > 100 µM | [16] > 100 µM | [19] > 100 µM | [17] > 100 µM | [18] > 100 µM

COC(=O)CC1C(COC(C)=O)OC(n2cc(C)c(=O)[nH]c2=O)C1OC(C)=O (configuration not stated)
inactive: [1] > 100 µM | [2] > 100 µM | [3] > 100 µM | [4] > 100 µM | [5] > 100 µM | [6] > 100 µM | [7] > 100 µM | [8] 4.73 µM | [9] > 100 µM | [10] > 100 µM | [11] > 100 µM | [12] > 100 µM | [13] > 100 µM | [14] > 100 µM | [15] > 100 µM | [16] > 100 µM | [19] > 100 µM | [17] > 100 µM | [18] > 100 µM

COc1ccc(C(=O)/C=C/c2ccc3c(c2)OCO3)c(OCc2ccccc2)c1
inactive: [1] 16.6 µM | [2] 4.79 µM | [3] 11.8 µM | [4] 6.79 µM | [5] 2.01 µM | [6] > 100 µM | [7] 6.78 µM | [8] 7.82 µM | [9] 7.89 µM | [10] > 70.1 µM | [11] 24.3 µM | [12] 7.67 µM | [13] 4.45 µM | [14] 32.7 µM | [15] 25.6 µM | [16] > 54.8 µM | [19] 15.9 µM | [17] 8.71 µM | [18] > 63 µM

COc1ccc(/C=C/c2cnnc3ccccc23)cc1OC
inactive: [1] > 10 µM | [2] > 10 µM | [3] > 10 µM | [4] > 10 µM | [5] > 10 µM | [6] > 10 µM | [7] > 10 µM | [8] > 10 µM | [9] > 10 µM | [10] > 10 µM | [11] > 10 µM | [12] > 10 µM | [13] > 10 µM | [14] > 10 µM | [15] > 10 µM | [16] > 10 µM | [19] > 10 µM | [17] > 10 µM | [18] > 10 µM

CSc1cc(Cl)c(C(=O)Nc2ccccc2)cc1S(=O)(=O)n1ccnc1O
inactive: [1] > 100 µM | [2] > 100 µM | [3] > 100 µM | [4] > 100 µM | [5] > 100 µM | [6] > 100 µM | [7] > 100 µM | [8] > 100 µM | [9] > 100 µM | [10] > 100 µM | [11] > 100 µM | [12] > 100 µM | [13] > 100 µM | [14] > 100 µM | [15] > 100 µM | [16] > 100 µM | [19] > 100 µM | [17] > 100 µM | [18] > 100 µM

C[n+]1ccccc1/C=C/c1ccc2c(c1)OCO2
inactive: [1] > 10 µM | [2] > 10 µM | [3] > 10 µM | [4] > 10 µM | [5] > 10 µM | [6] > 10 µM | [7] > 10 µM | [8] > 10 µM | [9] > 10 µM | [10] > 10 µM | [11] > 10 µM | [12] > 10 µM | [13] > 10 µM | [14] > 10 µM | [15] > 10 µM | [16] > 10 µM | [19] > 10 µM | [17] > 10 µM | [18] > 10 µM

CN(C)c1ccc2c(SCC(=O)OCC(=O)[C@@]3(O)CC[C@H]4[C@@H]5CCC6=CC(=O)C=C[C@]6(C)[C@H]5C(=O)C[C@@]43C)c3ccc(N(C)C)cc3nc2c1
inactive: [1] 4.53 µM | [2] 9.59 µM | [3] 23.6 µM | [4] 2.82 µM | [5] 1.24 µM | [6] 57.9 µM | [7] 2.02 µM | [8] > 100 µM | [9] 26.7 µM | [10] 27.5 µM | [11] 16.7 µM | [12] 8.11 µM | [13] 14.6 µM | [14] 6.19 µM | [15] 15 µM | [16] 27.4 µM | [19] 7.01 µM | [17] 6.19 µM | [18] 15.7 µM

CC[C@H](C)[C@H](NC(=O)[C@@]1(O)[C@H](O)[C@]2(CC)C=CCN3CC[C@@]4(c5cc(Br)c(OC)cc5N(C)[C@@H]14)[C@@H]32)C(=O)OC
inactive: [1] 24.8 µM | [2] 88.5 µM | [3] 22.5 µM | [4] 25.5 µM | [5] 37.8 µM | [6] 32.2 µM | [7] 11.6 µM | [8] 23.2 µM | [9] 16.8 µM | [10] 15.7 µM | [11] 86.1 µM | [12] 39.4 µM | [13] 14.2 µM | [14] 27.5 µM | [15] 24.4 µM | [16] 38 µM | [19] 27.2 µM | [17] 29 µM | [18] 24.9 µM

O=c1[nH]cc(F)c(=O)[nH]1 [FLUOROURACIL]
inactive: [1] 9.62 µM | [2] 110 µM | [3] 4.45 µM | [5] 20.9 µM | [6] 21.8 µM | [8] 225 µM | [9] 6.03 µM | [10] 489 µM | [11] 12.2 µM | [12] 20.2 µM | [13] 4.91 µM | [14] 1.33 µM | [15] 11.6 µM | [16] 171 µM | [19] 24.9 µM | [17] 27.7 µM | [18] 95.7 µM
